Where “and” joins values, the source holds several entries; their conditions need not be identical. Equal entries are not always repeated. Where two headings read alike, the source gives them in different places.
Tests used:
MCF-7 = test: [3H]-thymidine incorporation assay; type: cell-based; conditions: Homo sapiens, MCF7; MCF-7, 24 h of treatment
Summary of the method: (§1)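 Cells treated 24 h with compound at 1, 5, 10 μM (MCF-7) or 5, 15, 30 μM (MDA-MB-231), in triplicate, then pulsed with 0.5 μCi [3H]-thymidine for 4 h at 37 °C. TCA-precipitated, lysed cells counted by scintillation; uptake expressed as percent of control.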

MDA-MB-231 = test: [3H]-thymidine incorporation assay; type: cell-based; conditions: Homo sapiens; MDA-MB-231, 24 h of treatment
Summary of the method: as §1

CCRF-CEM = conditions: 48 h
MOLT-4 = conditions: MOLT-4, 48 h
SF-539 = conditions: SF-539, 10 μM, 48 h
PC-3 = conditions: PC-3, 48 h
Leukemia [1] = conditions: Leukemia subpanel
[2] = test system: Non-small cell lung cancer; conditions: Non-small cell lung cancer subpanel
CNS cancer = CNS cancer subpanel
K-562 = test: cells; conditions: Homo sapiens, K562, 48 h
SR = test: cells; conditions: Homo sapiens, 48 h
HCT-116 = test: cells; conditions: Homo sapiens, HCT-116, 48 h
A498 = test: cells; conditions: Homo sapiens, A498, 48 h
UO-31 = test: cells; conditions: Homo sapiens, UO-31, 48 h
DU-145 = test: cells; conditions: Homo sapiens, DU-145, 48 h
BT-549 = test: cells; conditions: Homo sapiens, BT-549, 48 h, read-out: LC50, BT-549, 48 h
Leukemia [3] = test: cells; conditions: Homo sapiens
[4] = test system: Non-small cell lung cancer; test: cells; conditions: Homo sapiens
Breast cancer = test: cells; conditions: Homo sapiens
HOP-92 = test: NCI-60 SRB screen; conditions: HOP-92, 48 h
NCI-H266 = test: NCI-60 SRB screen
SF-295 = test: NCI-60 SRB screen; conditions: SF-295, 48 h
MALME-3M = test: NCI-60 SRB screen; conditions: 48 h
UACC-62 = test: NCI-60 SRB screen; conditions: for GI50 / CC50: UACC-62, 48 h
IGROV1 = test: NCI-60 SRB screen
Colon cancer = test: NCI-60 SRB screen, subpanel

With `O=C(O)CCCCCN1C(=O)/C(=C/C=C/c2ccc([N+](=O)[O-])o2)SC1=S` [14b, 6-((Z)-5-((E)-3-(5-nitrofuran-2-yl)allylidene)-4-oxo-2-thioxothiazolidin-3-yl)hexanoic acid] the IC50 (MCF-7) was 2600 nM, the IC50 (MDA-MB-231) was 1600 nM and the GI50 (CCRF-CEM) was 270 nM. The TGI (CCRF-CEM) was 570 nM and 960 nM, the GI50 (MOLT-4) was 310 nM and the TGI (MOLT-4) was 1500 nM and 1210 nM. For the same molecule, the “growth GP” value (SF-539) was -98.05%, the GI50 (SK-MEL-28; SK-MEL-28, 48 h) was 1190 nM and the TGI (SK-MEL-28; SK-MEL-28, 48 h) was 3110 nM and 2710 nM. The CC50 (SK-MEL-28; human, 48 h) was 6210 nM, the “growth GP” value (TK-10; TK-10, 10 μM, 48 h) was -95.04% and the GI50 (TK-10; TK-10, 48 h) was 1850 nM. For the same molecule, the TGI (TK-10; TK-10, 48 h) was 3320 nM and 3470 nM, the CC50 (TK-10; human, 48 h) was 6330 nM and the TGI (PC-3) was 3150 nM and 3300 nM. The “MG_MID TGI” value (Leukemia [1]) was 11350 nM, the “MG_MID TGI” value [2] was 3850 nM and the “MG_MID TGI” value (CNS cancer) was 2620 nM. The GI50 (K-562; K-562, 48 h) was 200 nM, the CC50 (K-562; read-out: LC50) was over 100000 nM and the GI50 (SR) was 270 nM. The GI50 (HCT-116) was 310 nM, the GI50 (A498) was 8130 nM and the GI50 (UO-31) was 520 nM. The CC50 (UO-31; read-out: LC50, UO-31, 48 h) was 4310 nM, the GI50 (DU-145) was 1520 nM and the CC50 (DU-145; read-out: LC50, DU-145, 48 h) was 5440 nM. It also gave a CC50 (BT-549) of 5070 nM, a GI50 (Leukemia [3]; read-out: MG_MID GI50) of 410 nM and a CC50 (Leukemia [3]; read-out: MG_MID LC50) of 64900 nM. It also gave a GI50 ([4]; read-out: MG_MID GI50) of 1480 nM, a CC50 ([4]; read-out: MG_MID LC50) of 21800 nM and a GI50 (Breast cancer; read-out: MG_MID GI50) of 650 nM. The CC50 (Breast cancer; read-out: MG_MID LC50) was 36500 nM, the GI50 (HOP-92) was 1050 nM and the TGI (HOP-92) was 3340 nM and 2480 nM. The GI50 (HOP-92; Homo sapiens) was 1740 nM, the CC50 (HOP-92; Homo sapiens, read-out: LC50, HOP-92, 48 h) was 6410 nM and the GI50 (NCI-H266; Homo sapiens, 48 h, NCI-H266, 48 h) was 2210 nM. The CC50 (NCI-H266; Homo sapiens, 48 h, read-out: LC50, NCI-H266, 48 h) was 90200 nM, the GI50 (NCI-H266; NCI-H266, 48 h) was 1960 nM and the TGI (NCI-H266; NCI-H266, 48 h) was 7060 nM and 7950 nM. It also gave a GI50 (SF-295; Homo sapiens) of 1910 nM, a CC50 (SF-295; Homo sapiens, read-out: LC50, SF-295, 48 h) of 8720 nM and a GI50 (SF-295) of 1700 nM. For the same molecule, the TGI (SF-295) was 4080 nM and 3360 nM, the GI50 (MALME-3M; Homo sapiens, Malme-3M) was 280 nM and the CC50 (MALME-3M; Homo sapiens, Malme-3M, read-out: LC50, MALME-3M, 48 h) was 2850 nM. The GI50 (MALME-3M; MALME-3M) was 240 nM, the TGI (MALME-3M; MALME-3M) was 760 nM and 720 nM and the CC50 (MALME-3M; read-out: LC50, MALME-3M) was 2720 nM. The GI50 (UACC-62; Homo sapiens) was 370 nM, the CC50 (UACC-62; Homo sapiens, read-out: LC50, UACC-62, 48 h) was 4080 nM and the “growth GP” value (UACC-62; UACC-62, 10 μM, 48 h) was -96.88%. It also gave a GI50 (UACC-62) of 250 nM, a CC50 (UACC-62; read-out: LC50) of 2820 nM and a CC50 (IGROV1; Homo sapiens, IGROV-1, 48 h, read-out: LC50, IGROV1, 48 h) of 5010 nM. For the same molecule, the CC50 (IGROV1; read-out: LC50, IGROV1, 48 h) was 2670 nM, the “MG_MID TGI” value (Colon cancer; Colon cancer subpanel) was 1920 nM and the GI50 (Colon cancer; Homo sapiens, read-out: MG_MID GI50) was 870 nM. It also gave a CC50 (Colon cancer; Homo sapiens, read-out: MG_MID LC50) of 11700 nM.
